Measurements reported in article PMC5847048 (Psychopharmacology, 2017).
Read-outs that look alike come from different tables or passages of the source.

What was measured:
[1] = tested on: aged mice (18–19 months old); assay: Sequential/spontaneous alternation (SA) working memory task in T-maze; type: in vivo, mouse; details: ITI 90 s
Method: Treatments were administered per os daily for nine consecutive days for studies involving the CSD and SA tasks. The 8th and the 9th oral administrations were given 60 min before acquisition and test phases in the CSD task, or before the training and the test sessions in the SA task.
The spontaneous alternation (SA) task was performed in independent groups of mice as regards to the CSD and radial maze tasks. The SA task allows investigation of aged-induced working memory impairments (Vandesquille et al. [2011]). In this task, mice are submitted to a series of successive choices in a T-maze. To alternate from trial to trial, animals have to remember at each choice (except the first one) only the previous trial and to reset the interfering information from trial to trial over a series. This resetting mechanism is a main aspect of working memory (Aggleton et al. [1986]; Béracochéa and Jaffard, [1987]; Kesner [2005]).
Behavioral tests were conducted in a gray Plexiglas T-maze. Stem and arms are 35 cm long, 15 cm wide, and 10 cm high. The starting box (10 cm × 12 cm) and each goal arm are separated from the central alley by a vertical sliding door, with opening and closing monitored by a computer. Photoelectric cells allow recording of both the choice of the goal arm (left or right) and the latency (in seconds) that elapsed between the opening of the starting box and the closing of the goal box. The T-maze is located at the center of a room with various allocentric cues (white or black or striped card boards) located on the wall 1 m above the apparatus.
Animals were not food deprived, and no food reinforcement was used. Animals were first submitted to a habituation phase consisting of two free exploration sessions of 10 min each, over two consecutive days (one session per day) in the apparatus with all doors opened. At the end of the habituation phase, all animals were submitted to a training phase, involving a series of seven successive trials separated by a 30-s intertrial interval (ITI). The training phase was aimed at familiarizing the animals with the opening and closing of the doors.
For the training session, animals were submitted to a sequence of seven successive identical trials. At the beginning of a trial, mice were placed in the starting box and after a confinement period (30 s, predefined ITI), the door to the stem was opened. When the mouse entered one of the goal arms, the door was closed and the chosen arm was recorded. After a 30-s confinement period in the chosen arm, the mouse was gently returned to the starting box for a second trial, identical to the first one. To avoid olfactory cues in the apparatus, visible traces of urine were removed and the general procedure was implemented as in the training phase, except that the ITI was extended to 90 s and animals were submitted to a series of […] successive trials. […] Moreover, an 8th trial was added to the series which was separated from the 7th one by a 5-s ITI. […] The alternation score (in percentage) was used as an index of memory performance. An alternation is defined as a visit in a given arm followed by a visit into the other arm. The successive sequence of visits for the seven first trials determines the level of alternation. A percentage of alternation was calculated: number of alternations performed/number maximal of alternation. This percentage is calculated for each mouse.
For the sequential alternation task, mean and standard errors of the mean (SEM) were calculated for each group of treatment. In addition to % alternation drawn over the seven trials of the series, behavioral performances were also expressed in percentage of alternation drawn from blocks of two consecutive trials (block 1: trials 2 + 3; block 2: trials 4 + 5; block 3: trials 6 + 7). The analyses per trial blocks allowed evaluation of proactive interference over the series (Vandesquille et al. [2011], [2013]). Statistical analyses were performed using the Statview 5.0 software. […]

[2] = Method: The sampling times were 30 min, 1, 2, 4, and 6 h.
Plasma was extracted from the blood sample by centrifugation (+ 4 °C, 1500g, 10 min) and stored at − 80 °C. Then, plasma samples were sent in dry ice to Celerion (Switzerland) for the pharmacokinetic analysis.

middle-aged mice = tested on: middle-aged mice; design: method as in Giralt et al. [2017]; details: ref Giralt et al. [2017]; cited from earlier work
aged rats = tested on: aged rats; design: method as in Calabrese et al. [2017]; details: dorsal hippocampus and prefrontal cortex of aged rats; ref Calabrese et al. [2017]; cited from earlier work
mice = assay: Primary observation (Irwin) test; details: S 47445 alone, 3 to 100 mg/kg p.o.; mice
Description: Male Rj: C57BL/6J mice (Elevage Janvier, 53940 Le Genest-Saint-Isle, France), 23–27 g body weight range, were stabilized for at least 5 days after delivery in macrolon cages in groups of 10 (housing period) (25 × 19 × 13 cm) and then of 4 (starting the day before the test and during the test) in macrolon cages (25 × 19 × 13 or 32 × 13 × 14 cm) on wood litter with free access to food and water.
Between one and three treated groups were compared with the same control at any one time. […] In order to keep the same conditions, all the mice receiving a single treatment also received another administration with vehicle.
Behavioral modifications, physiological and neurotoxicity symptoms, and rectal temperature were recorded according to a standardized observation grid derived from that of Irwin. The grid contains the following items: death*, convulsions*, tremor*, Straub tail*, altered activity, excitation, jumping*, abnormal gait* (rolling, tip-toe), motor incoordination*, altered muscle tone, loss of grasping, akinesia, catalepsy, loss of traction, writhing*, piloerection*, stereotypies* (sniffing, chewing, head movements), head-twitches*, scratching*, altered respiration*, aggression*, altered fear, altered reactivity to touch, ptosis, exophthalmia, loss of righting reflex, loss of corneal reflex, analgesia, defecation/diarrhea, salivation, lacrimation, and rectal temperature (hypothermia/hyperthermia).

[3] = S 47445 0.01 mg/kg p.o. alone, n = 12
[4] = S 47445 0.03 mg/kg p.o. alone, n = 12
[5] = S 47445 0.3 mg/kg p.o. alone, n = 12
[6] = S 47445 1.0 mg/kg p.o. alone, n = 12
[7] = S 47445 0.3 mg/kg p.o. alone, repeated (day 10), blood, middle-aged mice

O=C1c2cc3nnn(CCc4cccc(F)c4)c(=O)c3cc2OCN1C1CC1 [S 47445]
Alternation score, 3rd block of trials (trials 6 + 7) [1, 3]: 45.833 ± 9.650 n = 12% | Alternation score, seven first trials of the series [1, 3]: 59.722 ± 2.477 n = 12% | Alternation score, 3rd block of trials (trials 6 + 7) [1, 4]: 50.000 ± 8.704 n = 12% | Alternation score, seven first trials of the series [1, 4]: 61.11 ± 4.738 n = 12% | Alternation score, 3rd block of trials (trials 6 + 7) ([1]; S 47445 0.1 mg/kg p.o. alone, n = 12): 70.833 ± 7.432 n = 12% | Alternation score, seven first trials of the series ([1]; S 47445 0.1 mg/kg p.o. alone, n = 12, 0.1 mg/kg): alternated significantly above vehicles | Alternation score, seven first trials of the series ([1]; S 47445 0.1 mg/kg p.o. alone, n = 12, listed as S47445, 0.1 mg/kg): 65.278 ± 3.815 n = 12 % | Alternation score, 3rd block of trials (trials 6 + 7) [1, 5]: 50.000 ± 8.704 n = 12% | Alternation score, seven first trials of the series [1, 5]: 61.111 ± 2.369 n = 12% | Alternation score, 3rd block of trials (trials 6 + 7) [1, 6]: 58.333 ± 8.333 n = 12% | Alternation score, seven first trials of the series [1, 6]: 59.722 ± 3.217 n = 12% | Mean AUClast [% CV] [2, 7]: 32.1 [7.83] ng h/mL | Mean Cmax [% CV] [2, 7]: 10.2 [13.7] ng/mL | Median Tmax [range] [2, 7]: 1.5 [1–4] h | T1/2z [% CV] [2, 7]: 2.09 [32.0] h | Blood concentration at the active doses used in the pharmacological experiments ([2]; S 47445, limit of quantification 1 ng/ml): below the limit of quantification | tmax ([2]; S 47445, not changed following combination): 1.5 h | Apparent elimination half-life ([2]; mouse, in vivo): 2.1 to 3.6 h | Mean AUClast [% CV] ([2]; mouse, in vivo): 32.6 [23.0] ng h/mL | Mean Cmax [% CV] ([2]; mouse, in vivo): 8.46 [20.8] ng/mL | Median Tmax [range] ([2]; mouse, in vivo): 1.5 [1–2] h | T1/2z [% CV] ([2]; mouse, in vivo): 3.58 [66.9] h | Time after dosing at which Cmax was reached ([2]; mouse, in vivo): 1 to 4 h | In vivo CA3-CA1 long-term potentiation and structural synaptic changes (middle-aged mice): rescues in vivo CA3-CA1 long-term potentiation and structural synaptic changes | Neurotrophic effects (aged rats): displayed neurotrophic effects | Observable effects in the Irwin test (mice): devoid of any observable effect
